Assay results taken from patent US20250145639A1, “MUTANT KRAS MODULATORS AND USES THEREOF” (NEWAVE PHARMACEUTICAL INC., priority 2021, published 2025).

Assays:
[1] = molecular target: T1, HIS-KRAS (G12C, aa 2-185) (Homo sapiens, UniProt P01116, G12C); test: KRas G12C binding assay (TR-FRET, SOS1-mediated BODIPY FL GTP nucleotide exchange); conditions: GDP-loaded HIS-KRAS (G12C) 3 nM, 1 hour pre-incubation with compound, 4 hours with SOS1 ExD and BODIPY FL GTP at 25° C
T1 construct: HIS-KRAS (G12C, aa 2-185, Sino biological); purchased Sino biological
Description: Biological Example 1: KRas G12C Binding Assay
(§1) HIS-KRAS (G12C, aa 2-185, Sino biological) was diluted to 5 uM in EDTA buffer (20 mM HEPES, pH 7.4, 50 mM NaCl, 10 mM EDTA, 0.01% (v/v) Tween-20) and incubated for 30 min at 25° C. The EDTA pretreated HIS-KRAS (G12C) was diluted to 12 nM in assay buffer (25 mM HEPES, pH 7.4, 120 mM NaCl, 5 mM MgCl 2, 1 mM DTT, 0.01% (v/v) Tween 20, 0.1% (w/v) BSA) containing 120 nM GDP (Sigma) and MAb Anti 6HIS—Tb cryptate Gold (Cisbio) and incubated for 1 hour at 25° C. to prepare GDP-loaded HIS-KRAS (G12C). The GDP-loaded HIS-KRAS (G12C) was pre-incubation with diluted compounds in a 384-well plate (Greiner) for 1 hour, then purified SOS1 ExD (Flag tag, aa 564-1049) and BODIPY™ FL GTP (Invitrogen) were added to the assay wells (Final concentration: 3 nM HIS-KRAS (G12C), 2 uM SOS1 ExD, 80 nM BODIPY™ FL GTP, 21 ng/mL MAb Anti 6HIS—Tb cryptate Gold) and incubated for 4 hours at 25° C. TR-FRET signals were then read on Tecan Spark multimode microplate reader. The parameters were F486: Excitation 340 (35) nm, Emission 486 (10) nm, Lag time 100 μs, Integration time 200 μs; F515: Excitation 340 (35) nm, Emission 515 (10) nm, Lag time 100 μs, Integration time 200 μs. TR-FRET ratios for each individual wells were calculated by equation: TR-FRET ratio=(Signal F515/Signal F486)*10000. Then the data were analyzed using a 4-parameter logistic model to calculate IC50 values. The following table lists the IC50 values of certain compounds of the invention.

[2] = molecular target: T2, GDP-loaded, histidine-tagged, truncated (1-169) KRAS G12C (Homo sapiens, UniProt P01116, G12C); test: KRas G12C in vitro covalent MS-based assay; type: binding; conditions: KRAS protein 2 uM, denaturing SEC-MS intact mass
T2 construct: histidine-tagged, truncated (1-169) KRAS proteins; His
Description: Biological Example 2: KRas G12C In Vitro Covalent MS-Based Assay
GDP-loaded, histidine-tagged, truncated (1-169) KRAS proteins (G12C, WT, G13D, as indicated) at 2 uM final concentration were incubated with the test compounds at the doses and time points indicated in a buffer containing 20 mmol/L HEPES pH 7.5, 150 mmol/L NaCl, 1 mmol/L MgCl 2, and 1 mmol/L DTT. Reactions were quenched by adding formic acid to 0.2%. Samples were buffer exchanged and analyzed by denaturing SEC-MS (Orbitrap Eclipse), Mobile phase: 30% ACN, 0.1% formic acid, 0.02% TFA. Raw data were analyzed by charge state deconvolution with BioPharma Finder 4.1 Intact Mass, ReSpect and Sliding Window algorithms. The masses were calculated via software for KRAS_G12C theoretical sequence and experimental compounds.

[3] = molecular target: HIS-KRAS (G12V) (Homo sapiens, UniProt P01116, G12V); test: KRas G12V binding assay (TR-FRET, SOS1-mediated BODIPY FL GTP nucleotide exchange); conditions: GDP-loaded HIS-KRAS (G12V) 3 nM, 1 hour pre-incubation with compound, 4 hours with SOS1 ExD and BODIPY FL GTP at 25° C
Description: Biological Example 3: KRas G12V Binding Assay
as §1, with “(G12V)” for “(G12C, aa 2-185, Sino biological)”, “(G12V)” for “(G12C)”, “(G12V).” for “(G12C).”, “(G12V),” for “(G12C),”

T1 sequence (P01116 2-185 isoform P01116-2 G12C): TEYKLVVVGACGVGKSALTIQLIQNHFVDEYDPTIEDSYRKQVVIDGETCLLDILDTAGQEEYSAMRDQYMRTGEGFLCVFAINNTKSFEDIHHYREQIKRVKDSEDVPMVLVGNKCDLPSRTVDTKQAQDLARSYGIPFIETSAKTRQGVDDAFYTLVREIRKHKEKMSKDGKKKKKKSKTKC
T2 sequence (P01116 1-169 isoform P01116-2 G12C): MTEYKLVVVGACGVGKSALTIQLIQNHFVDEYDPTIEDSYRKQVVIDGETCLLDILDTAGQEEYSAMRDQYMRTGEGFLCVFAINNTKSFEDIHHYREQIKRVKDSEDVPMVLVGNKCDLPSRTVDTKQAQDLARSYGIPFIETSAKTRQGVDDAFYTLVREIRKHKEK
Sequence of HIS-KRAS (G12V) (P01116 1-188 isoform P01116-2 G12V): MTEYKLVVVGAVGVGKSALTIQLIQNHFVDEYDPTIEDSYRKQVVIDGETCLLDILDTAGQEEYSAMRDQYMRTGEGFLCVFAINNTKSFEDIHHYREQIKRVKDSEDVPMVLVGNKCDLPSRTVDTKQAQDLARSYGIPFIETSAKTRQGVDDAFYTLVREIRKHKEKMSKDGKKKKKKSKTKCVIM

SMILES | IC50 [1] [nM] | Binding Model [2] | IC50 [3] [nM]
C#Cc1c(F)ccc2cc(O)cc(-c3ncc4c(N5CCCC[C@@H](NC(=O)C=C)C5)nc(OCC56CCCN5CCC6)nc4c3F)c12 [Example 8, N-[(3R)-1-[7-(8-ethynyl-7-fluoro-3-hydroxynaphthalen-1-yl)-8-fluoro-2-(hexahydropyrrolizin-7a-ylmethoxy)pyrido[4,3-d]pyrimidin-4-yl]azepan-3-yl]prop-2-enamide] | 7.11 | Covalent binding | 22.9
C#Cc1c(F)ccc2cc(O)cc(-c3ncc4c(N5CCCC[C@H](NC(=O)C=C)C5)nc(OCC56CCCN5CCC6)nc4c3F)c12 [Example 9, N-[(3S)-1-[7-(8-ethynyl-7-fluoro-3-hydroxynaphthalen-1-yl)-8-fluoro-2-(hexahydropyrrolizin-7a-ylmethoxy)pyrido[4,3-d]pyrimidin-4-yl]azepan-3-yl]prop-2-enamide] | 6.4 | Covalent binding | 3.15
